Tests used:
[1] = molecular target: T1, human EphB4 (Homo sapiens, UniProt P54760); assay: EphB4 receptor autophosphorylation sandwich ELISA in transfected A375 human melanoma cells; assay type: cell-based; conditions: EphB4 receptor auto-phosphorylation in vitro on cells
T1 construct: expressed in transfected cells; host or cells: A375 human melanoma cells (ATCC CRL-1619)
T1 sequence (P54760 16-987): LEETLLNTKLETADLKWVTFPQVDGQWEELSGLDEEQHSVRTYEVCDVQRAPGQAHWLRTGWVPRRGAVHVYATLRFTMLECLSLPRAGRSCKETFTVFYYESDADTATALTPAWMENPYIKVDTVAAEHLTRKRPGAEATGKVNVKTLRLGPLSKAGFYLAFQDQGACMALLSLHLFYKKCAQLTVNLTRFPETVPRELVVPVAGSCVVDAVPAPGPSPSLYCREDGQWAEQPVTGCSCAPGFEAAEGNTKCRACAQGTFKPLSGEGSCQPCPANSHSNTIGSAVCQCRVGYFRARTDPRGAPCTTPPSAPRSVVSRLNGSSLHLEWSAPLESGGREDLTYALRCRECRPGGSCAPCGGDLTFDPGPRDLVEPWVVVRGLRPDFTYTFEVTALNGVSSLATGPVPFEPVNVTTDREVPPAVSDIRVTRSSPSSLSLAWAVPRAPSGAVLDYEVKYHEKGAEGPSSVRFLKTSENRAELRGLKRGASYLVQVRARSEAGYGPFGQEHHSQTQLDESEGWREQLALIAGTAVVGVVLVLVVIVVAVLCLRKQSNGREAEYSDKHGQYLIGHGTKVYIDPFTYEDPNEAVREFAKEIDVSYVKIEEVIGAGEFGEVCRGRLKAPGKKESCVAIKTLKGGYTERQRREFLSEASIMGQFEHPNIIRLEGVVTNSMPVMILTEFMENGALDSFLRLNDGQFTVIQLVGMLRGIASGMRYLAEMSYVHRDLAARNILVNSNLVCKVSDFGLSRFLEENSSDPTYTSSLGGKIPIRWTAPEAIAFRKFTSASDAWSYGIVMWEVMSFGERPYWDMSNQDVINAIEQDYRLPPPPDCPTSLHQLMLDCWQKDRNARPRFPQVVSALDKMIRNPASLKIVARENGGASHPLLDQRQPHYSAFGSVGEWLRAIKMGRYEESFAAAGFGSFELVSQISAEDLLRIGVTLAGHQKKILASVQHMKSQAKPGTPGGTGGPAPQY
Protocol: Alternatively, EphB4 receptor autophosphorylation can be measured as follows: The inhibition of EphB4 receptor autophosphorylation can be confirmed with an in vitro experiment in cells such as transfected A375 human melanoma cells (ATCC Number: CRL-1619), which permanently express human EphB4 (SwissProt AccNo P54760), are seeded in complete culture medium (with 10% fetal calf serum ═FCS) in 6-well cell-culture plates and incubated at 37° C. under 5% CO2 until they show about 90% confluency. The compounds to be tested are then diluted in culture medium (without FCS, with 0.1% bovine serum albumin) and added to the cells. (Controls comprise medium without test compounds). Ligand induced autophosphorylation is induced by the addition of 1 microg/ml soluble ephrinB2-Fc (s-ephrinB2-Fc: R&D Biosystems, CatNr 496-EB) and 0.1 microM ortho-vanadate. After a further 20 minutes incubation at 37° C., the cells are washed twice with ice-cold PBS (phosphate-buffered saline) and immediately lysed in 200 μl lysis buffer per well. The lysates are then centrifuged to remove the cell nuclei, and the protein concentrations of the supernatants are determined using a commercial protein assay (PIERCE). The lysates can then either be immediately used or, if necessary, stored at −20° C. […]

[2] = molecular target: T2, human EphB4 receptor (Homo sapiens, UniProt P54760); assay: EphB4 kinase assay on recombinant Ephrin B4 receptor domains (33P filter assay); assay type: biochemical
T2 construct: made in house; host or cells: Sf9 or Sf21 insect cells (baculovirus)
T2 sequence (P54760 566-987): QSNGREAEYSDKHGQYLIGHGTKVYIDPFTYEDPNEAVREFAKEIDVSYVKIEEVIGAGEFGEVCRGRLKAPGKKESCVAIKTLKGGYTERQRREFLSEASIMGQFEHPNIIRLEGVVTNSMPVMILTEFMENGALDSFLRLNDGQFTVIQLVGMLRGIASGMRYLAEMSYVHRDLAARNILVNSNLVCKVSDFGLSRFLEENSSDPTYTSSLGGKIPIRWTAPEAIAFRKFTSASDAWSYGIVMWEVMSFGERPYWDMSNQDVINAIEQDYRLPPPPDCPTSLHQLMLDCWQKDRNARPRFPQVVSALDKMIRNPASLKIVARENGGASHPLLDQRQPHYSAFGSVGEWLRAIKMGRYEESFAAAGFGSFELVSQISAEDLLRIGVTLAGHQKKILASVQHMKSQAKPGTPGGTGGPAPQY
From the text: Recombinant baculovirus are generated that express the amino acid region 566-987 of the human EphB4 receptor (SwissProt Database, Accession No. P54760). GST sequence is cloned into pFastBac1® vector (Invitrogen Life Technologies, Basel, Switzerland) and PCR amplified. cDNAs encoding EphB4-receptor domains, respectively are cloned in frame 3′prime to the GST sequence into this modified FastBac1 vector to generate pBac-to-Bac™ donor vectors. Single colonies arising from the transformation are inoculated to give overnight cultures for small scale plasmid preparation. […] By automated sequencing the inserts and approximately 50 bp of the flanking vector sequences are confirmed on both strands.
Production of viruses: Viruses for each of the kinases are made according to the protocol supplied by GIBCO if not stated otherwise. In brief, transfer vectors containing the kinase domains are transfected into the DH10Bac cell line (GIBCO) and plated on selective agar plates. […]
Purification of GST-tagged kinases: The centrifuged cell lysate is loaded onto a 2 mL glutathione-sepharose column (Pharmacia) and washed three times with 10 mL of 25 mM Tris-HCl, pH 7.5, 2 mM EDTA, 1 mM DTT, 200 mM NaCl. […] Membranes are counted after drying at ambient temperature, mounting in Packard TopCount96-well frame, and addition of 10 μL/well of Microscint™ (Packard). […]

[3] = molecular target: T3, c-Abl kinase (Homo sapiens, UniProt P00519); assay: c-Abl protein-tyrosine kinase filter binding assay; assay type: biochemical
T3 construct: The His-tagged kinase domain of c-Abl is cloned and expressed in the baculovirus/Sf9 system; His; made in house; host or cells: Sf9 insect cells (baculovirus)
T3 sequence (P00519 242-493 limits assumed): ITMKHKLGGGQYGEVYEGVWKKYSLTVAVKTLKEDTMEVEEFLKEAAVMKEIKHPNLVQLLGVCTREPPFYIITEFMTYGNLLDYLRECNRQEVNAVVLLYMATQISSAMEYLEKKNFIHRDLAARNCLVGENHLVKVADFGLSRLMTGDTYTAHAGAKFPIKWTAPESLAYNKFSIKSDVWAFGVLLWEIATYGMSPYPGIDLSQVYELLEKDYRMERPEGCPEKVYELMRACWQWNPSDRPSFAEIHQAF
Protocol: The His-tagged kinase domain of c-Abl is cloned and expressed in the baculovirus/Sf9 system as described by Bhat et al. in J. Biol. Chem. 1997; 272:16170-16175. A protein of 37 kD (c-Abl kinase) is purified by a two-step procedure over a Cobalt metal chelate column followed by an anion exchange column with a yield of 1-2 mg/L of Sf9 cells (Bhat et al., reference cited). The purity of the c-Abl kinase is >90% as judged by SDS-PAGE after Coomassie blue stai-ning. The assay contains (total volume of 30 μL): c-Abl kinase (50 ng), 20 mM Tris.HCl, pH 7.5, 10 mM MgCl2, 10 μM Na3VO4, 1 mM DTT and 0.06 μCi/assay [γ33 P]-ATP (5 μM ATP) using 30 μg/mL poly-Ala, Glu, Lys, Tyr-6:2:5:1 (Poly-AEKY, Sigma P1152) in the presence of 1% DMSO. Reactions are terminated by adding 10 μL of 250 mM EDTA and 30 μL of the reaction mixture is transferred onto Immobilon-PVDF membrane (Millipore, Bedford, Mass., USA) previously soaked for 5 min with methanol, rinsed with water, then soaked for 5 min with 0.5% H3PO4 and mounted on vacuum manifold with disconnected vacuum source. After spotting all samples, vacuum is connected and each well rinsed with 200 μL 0.5% H3PO4. […] Membranes are counted after drying at ambient temperature, mounting in Packard TopCount 96-well frame, and addition of 10 μL/well of Microscint™ (Packard).

COc1ccc(-c2cnn3c(N)c(-c4cccc(Cl)c4)c(CN4CCNCC4)nc23)cc1OC [Example 1, 6-(3-Chloro-phenyl)-3-(3,4-dimethoxy-phenyl)-5-piperazin-1-ylmethyl-pyrazolo[1,5-a]pyrimidin-7-ylamine]
1 to 1000 nM: EphB4 ELISA - IC50 [1] | EphB4 IC50 [2] | c-Abl IC50 [3]

COc1ccc(-c2cnn3c(N)c(-c4ccc(F)cc4)c(CN4CCNCC4)nc23)cc1OC [Example 2, 3-(3,4-Dimethoxy-phenyl)-6-(4-fluoro-phenyl)-5-piperazin-1-ylmethyl-pyrazolo[1,5-a]pyrimidin-7-ylamine]
1 to 1000 nM: EphB4 ELISA - IC50 [1] | EphB4 IC50 [2] | c-Abl IC50 [3]

From US20080234284A1, “Pyrazolo[1,5-a]Pyrimidin-7-Yl Amine Derivatives as Protein Kinase Inhibitors” (priority 2005, published 2008)
